This is an account of results in patent publication US20240261268A1, “METHODS OF SLOWING AN INCREASE IN BRAIN VENTRICULAR VOLUME” (VANDA PHARMACEUTICALS INC., priority 2022, published 2024).

SMILES strings stand for the structures.

For data set [1] the following is noted: other S1P receptor modulators, given for comparison; cited from earlier work.
For data set [2], the system named is adult subjects with relapsing MS. In words: Phase III study ponesimod 20 mg vs teriflunomide 14 mg: treatment-emergent adverse events (Safety Set).
Procedure: A prospective, multicenter, randomized, double-blind, active controlled, parallel-group, phase III, superiority study was conducted.
The treatment period consisted of an up-titration period (from Day 1 to 14) and a maintenance period (Day 15 until EOT).
To reduce the first-dose effect of ponesimod, an up-titration scheme was implemented from Day 1 to Day 14: • Days 1 and 2; 2 mg. • Days 3 and 4; 3 mg. • Days 5 and 6; 4 mg. • Day 7; 5 mg. • Day 8; 6 mg. • Day 9; 7 mg. • Day 10; 8 mg. • Day 11; 9 mg. • Days 12, 13, and 14; 10 mg. • Day 15 until EOT; 20 mg.
The Safety Set (SAF) included all randomized subjects who received at least one dose of study treatment. Subjects were analyzed based on actual treatment taken, not randomized treatment.
Data set [3] shares this test system. The data set can be described thus: Phase III study: premature treatment discontinuation and deaths. It counts as in vivo. The following applies: ponesimod 20 mg, teriflunomide 14 mg. The procedure:
A total of 1468 subjects were screened. Of those, 1133 subjects were randomized (567 to ponesimod 20 mg and 566 to teriflunomide 14 mg) across 162 sites in 28 countries, and 1131 subjects received at least one dose of study drug. The disposition of subjects is summarized in Table 1 and a summary of reasons (primary reason) for treatment discontinuation are shown in Table 2. Overall treatment and study discontinuation were balanced across both treatment arms. A total of 6.5% and 2.5% of the subjects discontinued due to AEs or tolerability related reasons in ponesimod 20 mg and teriflunomide 14 mg, respectively, while 1.9% and 4.3% discontinued due to efficacy related reasons. There were 2 deaths reported during the study—both on teriflunomide 14 mg.

For data set [4] the test system is unchanged. In words: 12-lead ECG heart rate and first-dose monitoring on Day 1. It counts as in vivo, human. On the procedure: The incidence of treatment-emergent heart rate and rhythm (including hypotension) AESIs on Day 1 was higher in the ponesimod 20 mg arm (2.1%) than in the teriflunomide 14 mg arm (0.4%). However, the overall incidence of first dose AESI on Day 1 was low (2.1%) in ponesimod. None of these events were serious nor led to permanent discontinuation of study treatment. Discharge criteria at 4 hours post-dose were met for ca. 99% of subjects. […] ECG HR effect: nadir at 2 hours post-dose (siponimod—3-4 hours, fingolimod—around by 6 hours). Low incidence of low HR outliers (post-dose HR≤40 bpm), all 3 of them with a pre-treatment HR of <55 bpm, which is a known risk factor for post-dose bradycardia with SIP receptor modulators.
The mean heart rate reduction compared to pre-dose reached a maximum for ponesimod 20 mg at 2-hours post dose, −8.7 bpm compared to −1.7 bpm for teriflunomide 14 mg (FIG. 2).

Data set [5] shares this test system. The data set can be described thus: MRI-based scaled brain ventricular volume (lateral + 3rd ventricle / ICV). It counts as in vivo, human. To be noted: p<0.001 vs baseline, ponesimod n=428, teriflunomide n=427. From the text:
Efficacy variable/timepoint: The endpoint was increase in ventricular volume up to the end of study (EOS). All available data up to EOS, regardless of treatment discontinuation was included (ITT approach).
Ventricular Volume (VV) data were obtained from MRI images from patients that participated in the OPTIMUM study. Data were obtained from those patients who had MRI imagines at baseline week 60 and week 108. One pre-requisite was to select only those patients who had all images completed.
Ventricular volume was estimated from MRI images collected at baseline (BL), week 60 and week 108 for 428 subjects treated with ponesimod and 427 with teriflunomide. Lesions were identified using T2-weighted and Proton Density (PD) MRIs. Ventricles were segmented using lesion-filled T1 images using with the longitudinal stream in FreeSurfer 7. For each subject, scaled ventricular volume (V) was computed as the sum of lateral and 3rd ventricle volumes divided by the intracranial volume (ICV) and expressed as a percentage. Average V (V) and average change in V (ΔV) from baseline at weeks 60 and 108 were compared across treatment arms. Ventricular volumes were correlated with Multiple Sclerosis Functional Composite (MSFC), Paced Auditory Serial Addition Test (PASAT), Average Timed 25 Foot Walk (T25FW), Average 9-Hole Peg Test (9-HPT), Single Digit Modality Test (SDMT), FSIQ-RMS and Expanded Disability Score (EDSS).

Where [6] appears, read: Day 1, ponesimod N=565, teriflunomide N=566, Safety Set.
Setting [7] is: ponesimod 20 mg N=565, teriflunomide 14 mg N=566, Safety Set.
[8] abbreviates: ponesimod 20 mg, teriflunomide 14 mg.
The mark [9] stands for this setting: treatment-emergent, ponesimod 20 mg N=565, teriflunomide 14 mg N=566, Safety Set.

Turning to `CCc1cc(/C(C)=N/OCc2ccc(C3CCCCC3)c(C(F)(F)F)c2)ccc1CN1CC(C(=O)O)C1` [siponimod], in data set [1], the “ECG HR effect: time of nadir post-dose” value was 3 to 4 h.
Take `C/C(O)=C(\C#N)C(=O)Nc1ccc(C(F)(F)F)cc1` [teriflunomide, reference compound]: the “Incidence of treatment-emergent heart rate and rhythm (including hypotension) AESIs on Day 1” value in data set [2] (Day 1, ponesimod 20 mg arm, teriflunomide 14 mg arm) is 0.4%. Moreover, in data set [2] (setting [6]), the “AESI effect on heart rate and rhythm (including hypotension) on Day 1: Subjects with at least one AE” value is recorded as 2(0.4) n (%); the “AESI heart rate and rhythm on Day 1, PT: Atrioventricular block first degree” value is reported as 0 n (%); the “AESI heart rate and rhythm on Day 1, PT: Bradycardia” value was 0 n (%); the “AESI heart rate and rhythm on Day 1, PT: Bundle branch block left” value is reported as 0 n (%). In addition, in data set [2] (setting [6]), the “AESI heart rate and rhythm on Day 1, PT: Bundle branch block right” value is given as 0 n (%); the “AESI heart rate and rhythm on Day 1, PT: Defect conduction intraventricular” value was 0 n (%); the “AESI heart rate and rhythm on Day 1, PT: Electrocardiogram QT prolonged” value is given as 1(0.2) n (%); the “AESI heart rate and rhythm on Day 1, PT: Presyncope” value is reported as 1(0.2) n (%). For the same compound, in data set [2] (setting [6]), the “AESI heart rate and rhythm on Day 1, PT: Sinus arrhythmia” value was 0 n (%); the “AESI heart rate and rhythm on Day 1, PT: Sinus bradycardia” value is given as 0 n (%). Moreover, in data set [2] (only if serious or severe, ponesimod 20 mg N=565, teriflunomide 14 mg N=566, Safety Set), the “Treatment-emergent AESI: Infection” value was 5(0.9) n (%). For the same compound, in data set [2] (setting [7]), the “TEAEs leading to premature discontinuation of study drug: Subjects with at least one AE” value is 34(6.0) n (%); the “TEAEs leading to premature discontinuation, SOC: Blood and lymphatic system disorders” value is 2(0.4) n (%); the “TEAEs leading to premature discontinuation, SOC: Cardiac disorders” value is reported as 2(0.4) n (%); the “TEAEs leading to premature discontinuation, SOC: Eye disorders” value was 0 n (%). In data set [2] (setting [7]), the “TEAEs leading to premature discontinuation, SOC: Gastrointestinal disorders” value is 4(0.7) n (%); the “TEAEs leading to premature discontinuation, SOC: General disorders and administration site conditions” value is recorded as 2(0.4) n (%); the “TEAEs leading to premature discontinuation, SOC: Hepatobiliary disorders” value was 2(0.4) n (%); the “TEAEs leading to premature discontinuation, SOC: Investigations” value is recorded as 10(1.8) n (%). Moreover, in data set [2] (setting [7]), the “TEAEs leading to premature discontinuation, SOC: Musculoskeletal and connective tissue disorders” value is 1(0.2) n (%); the “TEAEs leading to premature discontinuation, SOC: Neoplasms benign, malignant and unspecified (incl cysts and polyps)” value was 1(0.2) n (%); the “TEAEs leading to premature discontinuation, SOC: Nervous system disorders” value was 4(0.7) n (%); the “TEAEs leading to premature discontinuation, SOC: Pregnancy, puerperium and perinatal conditions” value was 3(0.5) n (%). Moreover, in data set [2] (setting [7]), the “TEAEs leading to premature discontinuation, SOC: Psychiatric disorders” value was 1(0.2) n (%); the “TEAEs leading to premature discontinuation, SOC: Reproductive system and breast disorders” value was 1(0.2) n (%); the “TEAEs leading to premature discontinuation, SOC: Respiratory, thoracic and mediastinal disorders” value is reported as 0 n (%); the “TEAEs leading to premature discontinuation, SOC: Skin and subcutaneous tissue disorders” value was 2(0.4) n (%). Besides, in data set [2] (setting [7]), the “TEAEs leading to premature discontinuation, SOC: Social circumstances” value is recorded as 1(0.2) n (%); the “TEAEs leading to premature discontinuation, SOC: Surgical and medical procedures” value is reported as 1(0.2) n (%); the “TEAEs leading to premature discontinuation, SOC: Vascular disorders” value was 0 n (%); the “Treatment-emergent AESI: Effect on heart rate and rhythm (including hypotension)” value is recorded as 24(4.2) n (%). In data set [2] (setting [7]), the “Treatment-emergent AESI: Hepatobiliary disorders/Liver enzyme abnormality” value is reported as 82(14.5) n (%), the “Treatment-emergent AESI: Herpetic infection” value is 27(4.8) n (%), the “Treatment-emergent AESI: Hypertension” value is 51(9.0) n (%) and the “Treatment-emergent AESI: Macular edema” value is 1(0.2) n (%). Moreover, in data set [2] (setting [7]), the “Treatment-emergent AESI: Non-skin malignancy” value is reported as 1(0.2) n (%), the “Treatment-emergent AESI: Pulmonary events” value is on record as 15(2.7) n (%), the “Treatment-emergent AESI: Seizure” value is 1(0.2) n (%) and the “Treatment-emergent AESI: Skin malignancy” value was 1(0.2) n (%). In addition, in data set [2] (setting [8]), the “AESI category hepatobiliary disorders/liver enzyme abnormality” value came out at 14.5%, the AESI category hypertension is given as 9.0%, the “AESI category pulmonary events” value worked out at 2.7% and the “Proportion of subjects who experienced at least one SAE” value is 8.1%. In addition, in data set [2] (setting [8]), the “Proportion of subjects who experienced at least one TEAE” value was determined as 88.2%, the “TEAE: ALT increased” value stood at 9.4%, the “TEAE: headache” value worked out at 12.7% and the “TEAE: nasopharyngitis” value stood at 16.8%. Also, in data set [2] (setting [8]), the “TEAE: upper respiratory tract infection” value came out at 10.4% and the “TEAEs leading to premature treatment discontinuation” value worked out at 6.0%. Further, in data set [2] (setting [9]), the “Subjects with at least one AE” value is listed as 499(88.2) n (%), the “Subjects with at least one AE leading to study drug discontinuation” value is 34(6.0) n (%), the “Subjects with at least one Drug-Related AE” value is on record as 238(42.0) n (%) and the “Subjects with at least one Fatal AE” value was 2(0.4) n (%). In data set [2] (setting [9]), the “Subjects with at least one Serious AE” value was 46(8.1) n (%) and the “Subjects with at least one Severe AE” value is given as 26(4.6) n (%). Further, the “Subjects discontinued due to AEs or tolerability related reasons” value in data set [3] is 2.5%. For the same compound, the “Mean heart rate reduction compared to pre-dose (maximum)” value in data set [4] (Day 1, 2 hours post dose, 12-lead ECG) is given as −1.7 bpm. Further, in data set [4] (Day 1, all had pre-treatment HR <55 bpm), the “Subjects with asymptomatic post-dose HR≤40 bpm” value is reported as “none”. Further, in data set [5] (week 60), the “Average change in scaled ventricular volume from baseline (Δ60V), percentage of ICV” value was found to be 0.065%. Further, in data set [5] (week 108), the “Average change in scaled ventricular volume from baseline (Δ108V), percentage of ICV” value is 0.124%.
Turning to `CCCCCCCCc1ccc(CCC(N)(CO)CO)cc1` [fingolimod], the “ECG HR effect: time of nadir post-dose” value in data set [1] was roughly 6 h.
